The text below walks through data of patent US20070111251A1, “Chemical address tags” (priority 2003, published 2007).

The series relates to HeLa cells. Briefly: Kinetic imaging of NBD-triazine probe uptake and sequestration, fitted to nested two-compartment transport model. Particulars: median over optimal solutions within 5% of the best fit. It counts as cell-based. On the procedure:
In living cells, image data was simultaneously acquired with an automated, high-content, kinetic screening instrument equipped with an environmental chamber (see, e.g., V. C. Abraham, D. L. Taylor and J. R. Haskins, Trends in Biotechnology 22, 15 (2004); herein incorporated by reference in its entirety), as cells were incubated with the fluorescent molecules and after removal of extracellular probe. Data was analyzed off line, using an image analysis algorithm to measure the statistical pixel intensity distribution associated with fluorescence probe sequestration in the perinuclear region (see, e.g., FIG. 21; see also, e.g., G. J. Ding et al., Journal of Biological Chemistry 273, 28897 (1998); herein incorporated by reference in its entirety). Data was parametrized with a nested, two-compartment, transport model (see, e.g., W. E. Evans, J. J. Schentag and W. J. Jusko., Applied Pharmacokinetics: Principles of Therapeutic Drug Monitoring (Lippincott Williams & Wilkins, Vancouver, W.A., 1992); herein incorporated by reference in its entirety), using a statistical link function to relate the kinetic coefficient of variation (CV) of pixel intensities in the images with the concentration of probe in vesicles and cytoplasm. Optimal kinetic parameters fitting the experimental data for each probe to the system described by the two-compartment model and statistical link function were determined using the simulated annealing technique (see, e.g., M. Pincus., Oper. Res. 18, 1225 (1979); herein incorporated by reference in its entirety). The present invention is not limited to a particular mechanism. Indeed, an understanding of the mechanism is not necessary to practice the present invention.
To assess how well the model accounts for all the different kinetic traces acquired, a “PVE” (proportion of variance explained) by the model was calculated. The PVE is one minus the ratio of the sum of squared differences between observed and fitted values to the sum of squared differences between observed values and their mean. PVE values close to one indicate good fit to the nested two-compartment model. The average PVE across the probes was 0.92, with >50% of the probes yielded PVE values […]. The present invention is not limited to a particular mechanism. Indeed, an understanding of the mechanism is not necessary to practice the present invention.
Cell culture. HeLa cells were grown in RPMI+10% FCS in a 5% CO2 atmosphere at 37° C. and plated in 96-well plates at a density of 3000 cells/well 24 hours prior to the start of the experiment.
Kinetic Imaging. For influx experiments, cells on 96-well plates were switched to imaging media consisting of RPMI containing 1.0 mM Bromophenol Blue—a soluble, cell-impermeant chromophore used to suppress excitation and emission of extracellular (background) dye fluorescence-, 10 μM probe and 0.1 μM Hoescht 33258 to label the cell nuclei. Plates were then transferred to a KineticScan instrument (Cellomics, Inc., Pittsburgh, Pa.), which contains an environmentally controlled CO2/temperature/humidity chamber, and data was acquired with a 20× objective lens. Images acquisition began approximately 10 min after dye addition, using the Hoescht channel to acquire nuclear images and FITC channel to acquire the NBD image. Plate-scanning mode was used for scanning, in which the instrument builds time-stacks of images by scanning the plate multiple times, returning to the same site of the plate at every scan. For efflux experiments, dye-containing media was removed from the wells of the plate. The wells were washed twice with fresh RPMI medium, imaging media was added, and image acquisition restarted 7 min after the dye-containing media was removed. The last time points of the influx experiment served as the first time point of the efflux experiment. Plates were scanned for approximately two hours in the influx experiment and six hours for the efflux experiment, with each well imaged on average every 7 minutes. […]
In the case of `CCCCNc1nc(NCCCCCCNc2ccc([N+](=O)[O-])c3nonc23)nc(NCc2ccccc2)n1` [Compound A1], the “median Pap(cyto) (apparent partition coefficient between extracellular medium and cytosol)” value (from here on “median Pap(cyto)”) is on record as 185.83; the “median Pap(ves) (apparent partition coefficient between cytosol and intracellular vesicles, k(ves)in/k(ves)out)” value (“median Pap(ves)” below) was 0.52.
Taken in the same sequence, the figures for `CC(C)Nc1nc(NCCCCCCNc2ccc([N+](=O)[O-])c3nonc23)nc(NCc2ccccc2)n1` [Compound A2] were 13.18 and 13.98.
Taken in the same sequence, the figures for `CCCCCCCCNc1nc(NCCCCCCNc2ccc([N+](=O)[O-])c3nonc23)nc(NCc2ccccc2)n1` [Compound A3] were 12.96 and 6.45.
The corresponding values for `CC1CCC(Nc2nc(NCCCCCCNc3ccc([N+](=O)[O-])c4nonc34)nc(NCc3ccccc3)n2)CC1` (stereo not drawn) [Compound A4] are 7.72 and 29.83.
For `CC1CCCCC1Nc1nc(NCCCCCCNc2ccc([N+](=O)[O-])c3nonc23)nc(NCc2ccccc2)n1` (stereo not drawn) [Compound A5], the “median Pap(cyto)” value turned out to be 19.23; the “median Pap(ves)” value was found to be 12.11.
Taken in the same sequence, the figures for `O=[N+]([O-])c1ccc(NCCCCCCNc2nc(NCc3ccccc3)nc(NCC3CCCCC3)n2)c2nonc12` [Compound A6] were 151.26 and 0.30.
With `O=[N+]([O-])c1ccc(NCCCCCCNc2nc(NCc3ccccc3)nc(NC3CCCCC3)n2)c2nonc12` [Compound A7], the “median Pap(cyto)” value was 7.55; the “median Pap(ves)” value came to 33.83.
Taken in the same sequence, the figures for `CC(C)CCNc1nc(NCCCCCCNc2ccc([N+](=O)[O-])c3nonc23)nc(NCc2ccccc2)n1` [Compound A8] were 3.75 and 63.22.
Taken in the same sequence, the figures for `O=[N+]([O-])c1ccc(NCCCCCCNc2nc(NCCc3ccccn3)nc(NCc3ccccc3)n2)c2nonc12` [Compound A9] were 11.54 and 19.12.
The corresponding values for `CCCCNc1nc(NCCCCCCNc2ccc([N+](=O)[O-])c3nonc23)nc(NCc2cccc(OC)c2)n1` [Compound B1] are 262.28 and 0.31.
For the compound `COc1cccc(CNc2nc(NCCCCCCNc3ccc([N+](=O)[O-])c4nonc34)nc(NC(C)C)n2)c1` [Compound B2], the “median Pap(cyto)” value is given as 11.59; the “median Pap(ves)” value is 10.82.
The corresponding values for `CCCCCCCCNc1nc(NCCCCCCNc2ccc([N+](=O)[O-])c3nonc23)nc(NCc2cccc(OC)c2)n1` [Compound B3] are 3.43 and 31.61.
The corresponding values for `COc1cccc(CNc2nc(NCCCCCCNc3ccc([N+](=O)[O-])c4nonc34)nc(NC3CCC(C)CC3)n2)c1` (stereo not drawn) [Compound B4] are 18.09 and 12.15.
The corresponding values for `COc1cccc(CNc2nc(NCCCCCCNc3ccc([N+](=O)[O-])c4nonc34)nc(NC3CCCCC3C)n2)c1` (stereo not drawn) [Compound B5] are 9.10 and 9.25.
On to `COc1cccc(CNc2nc(NCCCCCCNc3ccc([N+](=O)[O-])c4nonc34)nc(NCC3CCCCC3)n2)c1` [Compound B6], for which the “median Pap(cyto)” value amounted to 242.54; the “median Pap(ves)” value is 0.36.
The corresponding values for `COc1cccc(CNc2nc(NCCCCCCNc3ccc([N+](=O)[O-])c4nonc34)nc(NC3CCCCC3)n2)c1` [Compound B7] are 12.22 and 11.80.
The corresponding values for `COc1cccc(CNc2nc(NCCCCCCNc3ccc([N+](=O)[O-])c4nonc34)nc(NCCC(C)C)n2)c1` [Compound B8] are 9.79 and 23.66.
Regarding `COc1cccc(CNc2nc(NCCCCCCNc3ccc([N+](=O)[O-])c4nonc34)nc(NCCc3ccccc3)n2)c1` [Compound B10], the “median Pap(cyto)” value is recorded as 8.21; the “median Pap(ves)” value is 27.03.
With `CCCCNc1nc(NCCCCCCNc2ccc([N+](=O)[O-])c3nonc23)nc(NCc2ccc(OC)cc2)n1` [Compound C1], the “median Pap(cyto)” value turned out to be 10.25; the “median Pap(ves)” value came to 22.06.
Taken in the same sequence, the figures for `COc1ccc(CNc2nc(NCCCCCCNc3ccc([N+](=O)[O-])c4nonc34)nc(NC(C)C)n2)cc1` [Compound C2] were 239.41 and 1.03.
The corresponding values for `CCCCCCCCNc1nc(NCCCCCCNc2ccc([N+](=O)[O-])c3nonc23)nc(NCc2ccc(OC)cc2)n1` [Compound C3] are 5.74 and 26.52.
For the compound `COc1ccc(CNc2nc(NCCCCCCNc3ccc([N+](=O)[O-])c4nonc34)nc(NC3CCC(C)CC3)n2)cc1` (stereo not drawn) [Compound C4], the “median Pap(cyto)” value is recorded as 22.58; the “median Pap(ves)” value is given as 9.87.
Taken in the same sequence, the figures for `COc1ccc(CNc2nc(NCCCCCCNc3ccc([N+](=O)[O-])c4nonc34)nc(NC3CCCCC3C)n2)cc1` (stereo not drawn) [Compound C5] were 10.01 and 9.72.
The corresponding values for `COc1ccc(CNc2nc(NCCCCCCNc3ccc([N+](=O)[O-])c4nonc34)nc(NCC3CCCCC3)n2)cc1` [Compound C6] are 19.15 and 11.94.
Regarding `COc1ccc(CNc2nc(NCCCCCCNc3ccc([N+](=O)[O-])c4nonc34)nc(NC3CCCCC3)n2)cc1` [Compound C7], the “median Pap(cyto)” value was 12.58; the “median Pap(ves)” value is recorded as 12.01.
Regarding `COc1ccc(CNc2nc(NCCCCCCNc3ccc([N+](=O)[O-])c4nonc34)nc(NCCC(C)C)n2)cc1` [Compound C8], the “median Pap(cyto)” value worked out at 8.56; the “median Pap(ves)” value stood at 31.04.
Taken in the same sequence, the figures for `COc1ccc(CNc2nc(NCCCCCCNc3ccc([N+](=O)[O-])c4nonc34)nc(NCCc3ccccn3)n2)cc1` [Compound C9] were 12.33 and 16.46.
